System: high phosphate-induced kidney damage
Assay: mouse model of high phosphate-induced kidney damage
Type: in vivo, C57BL/6 male mice
Conditions: 100 mg/kg 3 times/week subcutaneously, high phosphate diet, vs vehicle
Procedure: C57BL/6 male were placed on either regular diet containing 0.35% inorganic phosphate (NP) or high phosphate diet containing 2.0% inorganic phosphate (HP). These mice were subcutaneously injected with either (OEG2)2-IP4 (100 mg/kg) or vehicle (distilled water) three times a week and then sacrificed at 20 weeks of age to harvest their blood and kidneys. Relative mRNA levels of (A) Spp1, (B) IL36a, (C) Ngal, (D) MMP3 and (E) Col1a1 in kidney tissue homogenate are shown (mean±SD, N=7, except HP vehicle group N=6, two-way ANOVA with Sidak's multiple comparison between (OEG2)2-IP4 vs. vehicle control within the respective diet group, ns—not significant, * p<0.05). […]
C57BL/6 male mice (12 weeks of age) were placed on either regular diet containing 0.35% inorganic phosphate or high phosphate diet containing 2.0% inorganic phosphate. […] Serum FGF23 levels were measured using intact FGF23 ELISA (Kinos) according to the manufacturers' protocols. Serum and urine levels of phosphate were measured using Fuji Dri-Chem slides and the analyzer (Dri-Chem NX500V, Fuji, Tokyo, Japan). […] Quantitative RT-PCR reactions were performed using 20 ng of cDNA incubated with 410 nM of each primer and 6 μL of SYBR Green PCR Master mix (Toyoba, Osaka, Japan THUNDERBIRD SYBR qPCR Mix QPS-201) in a total volume of 12 μl. […] The cortex and the cortico-medullary junction were evaluated separately. […]

COCCOCCO[C@@H]1C(OP(=O)(O)O)[C@H](OCCOCCOC)[C@@H](OP(=O)(O)O)C(OP(=O)(O)O)[C@H]1OP(=O)(O)O (some centres unmarked) [(OEG2)2-IP4]
fibrosis, collagen volume fraction (Picro-Sirius red staining of the kidneys): significantly reduces fibrosis
kidney damage and fibrosis markers (Spp1, IL36a, Ngal, MMP3, Col1a1 mRNA): significantly reduced

Source: US12076331B2, “Inositol derivatives for use in pathological crystallization” (ETH Zurich, priority 2015, dated 2024)
